# Several values for one entry are separate records, joined by “and”; a condition that tells them apart may be missing. Equal entries are not always repeated.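 Exposure lasted 48 hours, with cells grown in 96-well plates and compounds tested at five concentrations. The concentration for 50% growth inhibition is given as GI50. TGI: concentration producing complete growth inhibition.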
# What was measured:
# Assay in all cases: DTP human tumour cell line panel, 48 h
# [1] = tested on: HT29 colon
# [2] = tested on: OVCAR-8 ovarian
# [3] = tested on: HOP-62 NSCLC
# [4] = tested on: U251 CNS
# [5] = tested on: COLO 205 colon
# [6] = tested on: HL-60(TB) leukemia
# [7] = tested on: SW-620 colon
# [8] = tested on: SF-539 CNS
# [9] = tested on: EKVX NSCLC
# [10] = tested on: A549 NSCLC
Structure (SMILES),GI50 [1] [nM],TGI [1] [µM],GI50 [2],TGI [2] [µM],GI50 [3],TGI [3] [µM],GI50 [4],TGI [4] [µM],GI50 [5] [nM],TGI [5] [µM],GI50 [6] [nM],TGI [6],GI50 [7] [nM],TGI [7] [µM],GI50 [8],TGI [8] [µM],GI50 [9] [nM],TGI [9],GI50 [10],TGI [10] [µM]
O=C(Nc1ccc(F)cc1F)c1cc(I)ccc1O,4060,> 100,3230 nM,> 100,2420 nM,7.87,3070 nM,> 100,5950,21.7,3080,9.13 µM,3390,90.7,2830 nM,10.2,2190,9.14 µM,3100 nM,> 100
C=CCc1cc(OC)c2c(c1)C(O)CC(c1ccc(OC)c(OC)c1)O2 (stereo not drawn),,> 100,,> 100,,> 100,,> 100,,> 100,,> 100 µM,,> 100,,> 100,,> 100 µM,,> 100
C=C(CNCCO)[C@@H]1CC[C@]2(CO)CC[C@]3(C)[C@H](CC[C@@H]4[C@@]5(C)CCC(N)C(C)(C)[C@@H]5CC[C@]43C)[C@@H]12 (stereo partly drawn),1860,3.89,1820 nM,3.74,2790 nM,7.36,1550 nM,2.89,1730,3.35,1890,4.1 µM,1890,3.75,1750 nM,3.21,4590,18.1 µM,2410 nM,6.69
COC(=O)[C@@H](C)C[C@H](Cc1ccc(F)cc1)NC(=O)c1csc([C@@H](C[C@H](C(C)C)N(C)C(=O)[C@@H](NC(=O)[C@H]2CCCCN2C)C(C)C)OC(C)=O)n1,,> 16.7,2.56 nM and 11.6 nM,> 16.7,1.87 nM and 10.2 nM,> 16.7,1.51 nM and 9.14 nM,> 16.7,6.41,0.0651,,0.00229 µM and 0.00952 µM,,> 16.7,1.53 nM and 7.14 nM,,,> 16.7 µM,2.77 nM and 10.7 nM,> 16.7
COc1ccc(NC(=O)c2cc(OC)cc(OC)c2)cc1,,> 100,,> 100,,> 100,,> 61.3,,> 42.8,,39.1 µM,,> 100,,> 70.3,,> 100 µM,,> 100
CCOC(=O)COc1cccc2c1C(=O)CCO2,,> 100,,> 100,,> 100,,> 100,,> 100,,> 100 µM,,> 100,,> 100,,> 100 µM,,> 100
COc1cc(/C=C/c2cc(/C=C/c3ccc(O)c(OC)c3)n(C(=O)Nc3ccc(F)cc3)n2)ccc1O,2030,4.69,1500 nM,4.79,1070 nM,9.36,769 nM,10.5,2090,3.7,364,1.93 µM,504,10.6,460 nM,5.31,3050,43.7 µM,2440 nM,18.3
NC1CCC(Nc2nc(NCc3ccc(-c4ccco4)nc3)c3ncn(C4CCCC4)c3n2)CC1 (stereo not drawn),8.01,,43.1 nM,,23.8 nM,0.0806,34.4 nM,12.6,14.3,0.0314,19.3,0.0729 µM,11.7,11.5,37.9 nM,0.204,46.5,0.538 µM and 0.242 µM,27.3 nM,14.4
O=C(Nc1ccc(I)cc1)c1cc([N+](=O)[O-])ccc1O,13300,89.7,7210 nM,25.8,16400 nM,> 100,6400 nM,66.1,10900,28.1,5440,57.8 µM,15500,54.5,11400 nM,80,6720,> 100 µM,11600 nM,> 100
COC(=O)Nc1nc2ccc(S(=O)c3ccccc3)cc2[nH]1 (stereo not drawn),3460,54.1,14800 nM,> 100,3640 nM,> 100,4450 nM,> 100,2510,7.78,2440,6.5 µM,3630,> 100,4640 nM,58.5,35000,> 100 µM,5480 nM,> 100
O=C1C2=C(SCCS2)C(=O)c2ccccc21,,4.44,,3.04,,2.9,,3.02,,2.96,,6.77 µM,,3.68,,3.09,,2.69 µM,,3.83
CCOc1ccccc1-n1c(CN2CCN(C(=O)COc3ccc(CNCCCCCCN4C5CCCC4CC(OC(=O)Nc4cc(C)ccc4OC)C5)cc3)CC2)nc2ccccc2c1=O (stereo not drawn),798,2.05,1830 nM,3.75,1700 nM,3.25,610 nM,1.2,1780,3.69,640,1.35 µM,757,2,1690 nM,3.14,1670,3.33 µM,1670 nM,3.27
CC(=O)C(CN(C(C)C)C(C)C)C(c1ccccc1)c1c(O)c2ccccc2oc1=O (stereo not drawn),,> 100,,> 100,,> 100,,> 100,,> 100,,> 100 µM,,> 100,,> 100,,> 100 µM,,> 100
NC(CSC(c1ccccc1)(c1ccccc1)c1ccc2c(c1)OCO2)C(=O)O (stereo not drawn),1810,> 44.5,595 nM,> 100,1640 nM,> 100,405 nM,> 74.5,325,1.15,313,0.836 µM,396,> 100,392 nM,> 41,625,79.4 µM,635 nM,> 100
CCCCCCCCSC1=CC(=O)c2nc3ccccc3c3ccnc1c23,> 100000,> 100,> 100000 nM,> 100,> 100000 nM,> 100,92600 nM,> 100,> 100000,> 100,16300,> 100 µM,> 100000,> 100,> 100000 nM,> 100,> 100000,> 100 µM,83200 nM,> 100
CC(=O)OC(C)C(=O)C1c2cccc(O)c2C(=O)c2c(O)cc(C)cc21 (stereo not drawn),,3.03,,2.24,,1.01,,1.11,,3.01,,0.847 µM,,1.71,,0.589,,4.09 µM,,1.11
COc1ccc(-c2cc(-c3ccc(Nc4nc(Nc5ccccc5)nc(Nc5ccc(Cl)cc5)n4)cc3)nc(N)c2C#N)cc1,1100,2.96,1810 nM,> 50,1930 nM,8.98,1230 nM,3.68,1000,2.15,1150,6.41 µM,1040,2.3,857 nM,1.77,1440,> 22.9 µM,2740 nM,> 50
O=[N+]([O-])c1cnc(Sc2ccncn2)s1,2650,6.37,3940 nM,13.1,21800 nM,40.2,3490 nM,11.5,1750,3.35,1690,4.18 µM,1660,3.29,5610 nM,14.9,6460,22.1 µM,10100 nM,27.1
O=C(O)C(Cc1ccccc1)N1C(=O)N/C(=C\c2ccc(F)cc2)C1=O (stereo not drawn),,> 100,,> 100,,> 100,,> 100,,> 100,,> 100 µM,,> 100,,> 100,,> 100 µM,,> 100
COc1ccc(-n2/c(=N/C(=S)N(C)C)ss/c2=N\C(=S)N(C)C)cc1,,5.97,,> 100,,> 100,,> 100,,> 100,,> 100 µM,,> 100,,> 100,,> 100 µM,,> 100
COc1cc2nc(-c3ccc(C(F)(F)F)cc3)cc(OCCCN3CCC(O)CC3)c2cc1OC,486,10.4,1660 nM,22.2,1800 nM,15,2120 nM,20.6,456,12.1,13900,31.9 µM,3530,14.8,5750 nM,20.8,1030,21.7 µM,1650 nM,18.4
